Data as given in PMC6941357, “An in vitro toolbox to accelerate anti-malarial drug discovery and development” (Malaria Journal, 2020).
Values after ≈ are worked out from the molar mass of the structure shown. Values joined by “and” are separate entries in the source; they are usually repeats but may differ in a detail not shown here. Equal entries are not always repeated.

Key:
CYP2D6 = CYP2D6 (Homo sapiens, UniProt P10635); assay: in vitro
Experimental: The CYP inhibition assay was based on a previous publication with minor modifications. The method uses human liver microsomes and a substrate-specific interaction approach which relies on the formation of a metabolite that is mediated by a specific CYP isoform. The specific CYP-mediated metabolic pathways, substrates, substrate Km values, positive control inhibitors and specific incubation conditions are shown in Additional file 1: Table S4. […] Samples were quenched by the addition of ice-cold acetonitrile containing diazepam as the analytical internal standard. Concentrations of the substrate-specific metabolites in quenched samples were determined by LC–MS (Additional file 1: Table S5) relative to calibration standards prepared in quenched microsomal matrix.
The inhibitory effect of each test compound and positive control inhibitor was based on the reduction in the formation of the specific CYP-mediated metabolite (represented as percent inhibition of enzyme activity) relative to metabolite formation in the absence of inhibitor (i.e. control for maximal enzyme activity). […] The Km was determined under the same incubation conditions by measuring the rate of metabolite formation (pmol/min/mg protein) as a function of substrate concentration (Additional file 1: Table S4).

[1] = biological target: T1, Albumax medium (lipid rich bovine serum albumin) (Bos taurus, UniProt P02769); assay: Binding in Albumax medium via ultracentrifugation; type: in vitro ADME; conditions: for fraction unbound at […], 500 ng/mL: bovine
T1 construct: purchased Gibco, Thermo Fisher Scientific
Experimental: (§1) An ultracentrifugation method adapted from a previous publication was initially used to assess plasma protein binding and binding in the other media. […] Additional ultracentrifuge tubes containing spiked matrix were maintained at 37 °C, 5% or 10% CO2 or normal atmosphere conditions, with aliquots being taken within 0.5 h of the start and at the end of ultracentrifugation to serve as controls for the assessment of stability and to obtain a measure of the total concentration (Ctotal). Following ultracentrifugation, the pH was checked and an aliquot of protein-free supernate was taken from each ultracentrifuge tube for determination of the unbound concentration (Cunbound).
(§2) Total matrix and protein free samples were analysed using a matrix matching approach whereby each sample was mixed in a 1:1 ratio with the opposite blank medium (i.e. blank total matrix or blank protein free buffer). For example, plasma samples were mixed with blank pH 7.4 buffer whereas plasma supernatant samples were mixed with blank plasma. Each of the sample sets were then assayed against a common calibration curve prepared in a 1:1 mixture of total matrix and protein free pH 7.4 buffer. […] The standard deviation for fu was calculated using the propagation of errors approach as described previously. The potential for compound degradation was assessed by comparing the average value for Ctotal at the start and end of the experiment.

[2] = Solubility in biorelevant media; conditions: for solubility / solubility at 1 h: thermodynamic from solid; for solubility at 1 h / solubility in all media tested: FaSSGF; for solubility in all media tested: FaSSIF-V2, FeSSIF-V2, PBS pH 7.4
Experimental: Solubility of each active pharmaceutical ingredient was evaluated at 37 °C in pH 7.4 phosphate buffered saline (prepared as described for the partitioning experiments), fasted (FaSSIF-V2) and fed (FeSSIF-V2) state simulated intestinal fluids and fasted state simulated gastric fluid (FaSSGF) as described by Jantratid et al.. […] Samples were vortexed and placed in a 37 °C incubator on an orbital mixer (IKA® VXR basic Vibrax® orbital mixer) set at 600 rpm. Sampling times were 1 h for FaSSGF or 5–6 h for FaSSIF-V2, FeSSIF-V2, and PBS. These times were used to reflect the maximal likely residence times within the stomach and small intestine, respectively. Sampling was carried out by centrifuging each sample at 10,000 rpm for 3 min, transferring 300 µL aliquots into fresh Eppendorf tubes and centrifuging these tubes again at 10,000 rpm for 3 min. Triplicate aliquots of the supernatant were then removed and diluted 1:2 in 50% aqueous methanol and then again in 50% aqueous acetonitrile to be within the analytical concentration range. Samples were analysed by LC–MS along with calibration standards (Additional file 1: Table S2).

[3] = Octanol/pH 7.4 buffer partition coefficient, shake flask; conditions: octanol/pH 7.4 buffer; for Measured Log D7.4: shake flask, 37 °C; for logD: pH 7.4
Outline: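 Both phases were measured by LC-MS, the aqueous phase after re-centrifugation, and the partition coefficient was taken as the octanol-to-buffer concentration ratio over two sampling times. Equal volumes of octanol, holding compound at two dilutions of a 3-30 mg/mL stock, and pH 7.4 phosphate/NaCl buffer were mixed at 37 °C.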

in vitro = conditions: human, pH 7.4, HLM CLint
Experimental: The metabolic stability assay was adapted from a previously published method. […] Reactions were quenched at 2, 5, 15, 30 and 60 min by the addition of acetonitrile containing 150 ng/mL diazepam as internal standard. Control samples (containing no cofactor) were included (quenched at 2, 30 and 60 min) to monitor degradation in the absence of cofactor. Concentrations were determined by LC–MS (Additional file 1: Table S2) by comparison to the response for a single point calibration standard prepared in quenched microsomal matrix.
Test compound concentration versus time data were fit using an exponential decay function to determine the first-order rate constant for substrate depletion. Where deviation from first-order kinetics was evident, only the initial linear portion of the logarithmic profile was utilized to determine the initial degradation rate constant (k, min^−1). Each substrate depletion rate constant was then used to calculate the in vitro intrinsic clearance value (CLint, in vitro, µL/min/mg protein) using Eq.
Unbound in vitro CLint values were obtained by dividing the measured CLint by the measured fu in microsomes.

[4] = Plasma protein binding via ultracentrifugation (UC); type: in vitro ADME, human; conditions: human, pH 7.4, ultracentrifugation, read-out: Fraction unbound, human plasma
Experimental: Pooled human plasma (n = 3–4 donors) was obtained by centrifugation of blood (collected by the Australian Red Cross Blood Service, Melbourne, Australia or the Volunteer Blood Donor Registry, Clinical Translation Centre, Walter & Eliza Hall Institute of Medical Research, Parkville, Australia), or sourcing pooled plasma directly from commercial sources (Innovative Research Inc, MI) and stored frozen at − 80 °C.
as §1, §2

[5] = Binding to human liver microsomes via ultracentrifugation; type: in vitro ADME; conditions: human, liver microsomes, pH 7.4, 0.4 mg/mL protein, read-out: Fraction unbound, HLM
Experimental: A suspension of human liver microsomes (HLM, XenoTech LLC, Lenexa, KS, USA) was prepared in 0.1 M phosphate buffer (pH 7.4) at a protein concentration of 0.4 mg/mL immediately prior to the experiment.
as §1, §2

[6] = 37 °C, fassgf or other biorelevant
[7] = phosphate buffered saline pH 7.4, 37 °C, pH 7.4, aqueous buffer
[8] = liver microsomes, human liver microsomes, average of n = 2 replicates, < 7 means < 15% loss over 60 min
[9] = neat pooled plasma, neat plasma

T1 sequence (P02769 25-607): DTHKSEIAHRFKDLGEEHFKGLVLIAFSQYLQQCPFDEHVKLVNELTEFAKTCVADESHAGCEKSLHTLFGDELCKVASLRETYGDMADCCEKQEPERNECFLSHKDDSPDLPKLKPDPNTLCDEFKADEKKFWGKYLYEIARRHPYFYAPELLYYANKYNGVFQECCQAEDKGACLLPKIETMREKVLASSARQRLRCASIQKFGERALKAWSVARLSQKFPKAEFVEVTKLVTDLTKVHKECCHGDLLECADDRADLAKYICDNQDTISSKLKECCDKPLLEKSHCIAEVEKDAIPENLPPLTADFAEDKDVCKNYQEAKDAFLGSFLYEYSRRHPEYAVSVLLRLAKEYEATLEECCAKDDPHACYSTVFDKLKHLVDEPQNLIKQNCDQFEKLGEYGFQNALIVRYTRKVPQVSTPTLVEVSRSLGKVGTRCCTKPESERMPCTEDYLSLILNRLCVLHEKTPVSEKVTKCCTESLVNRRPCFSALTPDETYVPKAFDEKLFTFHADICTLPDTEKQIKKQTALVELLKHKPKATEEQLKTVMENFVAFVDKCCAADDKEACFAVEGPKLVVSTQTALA
Chain of CYP2D6 (P10635 whole entry, canonical isoform): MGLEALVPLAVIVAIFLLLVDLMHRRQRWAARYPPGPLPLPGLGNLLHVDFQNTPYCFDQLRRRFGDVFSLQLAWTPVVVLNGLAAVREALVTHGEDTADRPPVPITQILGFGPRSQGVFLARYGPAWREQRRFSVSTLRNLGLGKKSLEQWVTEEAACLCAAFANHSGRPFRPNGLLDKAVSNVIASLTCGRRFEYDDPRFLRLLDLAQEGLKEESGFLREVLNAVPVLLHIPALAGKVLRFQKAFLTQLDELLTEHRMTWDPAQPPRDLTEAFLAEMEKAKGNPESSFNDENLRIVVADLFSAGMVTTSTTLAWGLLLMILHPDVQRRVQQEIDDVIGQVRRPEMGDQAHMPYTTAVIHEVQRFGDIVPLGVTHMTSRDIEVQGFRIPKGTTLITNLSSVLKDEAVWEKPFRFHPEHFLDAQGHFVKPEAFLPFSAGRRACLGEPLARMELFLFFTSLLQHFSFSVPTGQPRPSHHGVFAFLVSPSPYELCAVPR

Row | SMILES | IC50 (CYP2D6; microsomes) [nM] | Ki (CYP2D6; microsomes) [nM] | Fraction unbound, Albumax [1] | Solubility FaSSGF (1 h) ([2]; 37 °C) | Solubility FaSSIF-V2 (5–6 h) ([2]; 37 °C) | Solubility FeSSIF-V2 (5–6 h) ([2]; 37 °C) | Solubility PBS7.4 (5–6 h) ([2]; 37 °C) | Measured Log D7.4 [3] | other results
1 | CCN(CC)CCCNc1ccnc2cc(Cl)ccc12.Cl.Cl [AQ-13] | 13000 | 8300 | 0.85 ± 0.028 | > 2000 µg/mL and > 6850 µM | > 2000 µg/mL and > 6850 µM | > 2000 µg/mL and > 6850 µM | 1480 µg/mL and 5070 µM | 1.30 | –
2 | C[C@H]1[C@H](OC(=O)CCC(=O)O)O[C@@H]2O[C@@]3(C)CC[C@H]4[C@H](C)CC[C@@H]1[C@@]24OO3 [Artesunate] | – | – | – | – | – | – | – | – | IC50 (CYP2D6): > 20000 nM; CYP2D6 % inhibition at max conc (CYP2D6; microsomes): nmi; microsomal CLint at 1 µM (in vitro; microsomes): 146 µL/min/mg; fraction unbound at […], 500 ng/mL ([1]; Albumax medium, pH 7.4, instability evident, estimate only): 0.14 ± 0.007; solubility [2, 6]: 321 µg/mL (≈ 835 µM); solubility at 1 h [2, 6]: 835 µM (≈ 321 µg/mL); solubility ([2]; FaSSIF-V2, 37 °C, fassif): 1690 µg/mL and 4390 µM; solubility ([2]; FeSSIF-V2, 37 °C, fessif): 1720 µg/mL and 4490 µM; solubility [2, 7]: 1680 µg/mL and 4370 µM; fraction unbound at […] ([4]; pooled plasma, instability evident, estimate only): 0.27 ± 0.008
3 | CC1(C)N=C(N)N=C(N)N1c1ccc(Cl)cc1 [Cycloguanil] | – | – | – | – | – | – | – | – | IC50 (CYP2D6): 6000 nM; Ki (CYP2D6): 3700 nM; fraction unbound at […] [5]: 0.72 ± 0.083; microsomal CLint at 1 µM (in vitro; [8]): < 7 µL/min/mg; fraction unbound at […], 500 ng/mL ([1]; isolated protein, pH 7.4): 0.88 ± 0.057; solubility at 1 h [2, 6]: > 2000 µg/mL and > 7950 µM; solubility ([2]; FaSSIF-V2, 37 °C, fassif): > 2000 µg/mL and > 7950 µM; solubility ([2]; FeSSIF-V2, 37 °C, fessif): 533 µg/mL and 2120 µM; solubility [2, 7]: > 2000 µg/mL and > 7950 µM; fraction unbound at […] [4, 9]: 0.75 ± 0.04
4 | Cc1cc(Nc2ccc(S(F)(F)(F)(F)F)cc2)n2nc(C(C)(F)F)nc2n1 [DSM265] | – | – | – | – | – | – | – | – | solubility [2, 7]: 2.04 µg/mL and 4.9 µM; fraction unbound at […] [4, 9]: 0.008; logD [3]: 4.03
5 | Cc1cc(Nc2ccc(C(F)(F)F)nc2)n2nc(C(C)(F)F)nc2n1 [DSM421] | – | – | 0.43 ± 0.020 | – | – | – | 85.5 µg/mL and 239 µM | – | –
6 | CCNCc1cc(Nc2ccnc3cc(Cl)ccc23)ccc1O [Desethylamodiaquine] | – | – | – | – | – | – | – | – | IC50 (CYP2D6): 2600 nM; Ki (CYP2D6): 1600 nM; microsomal CLint at 1 µM (in vitro; [8]): 13.3 µL/min/mg; fraction unbound at […], 500 ng/mL ([1]; isolated protein, pH 7.4): 0.75 ± 0.074; fraction unbound at […] [4, 9]: 0.17 ± 0.002; logD [3]: 1.3
7 | COc1cc2[nH]c(C)c(-c3ccc(Oc4ccc(OC(F)(F)F)cc4)cc3)c(=O)c2cc1Cl [ELQ300] | 8000 | 5000 | – | 0.929 µg/mL and 1.95 µM | 0.524 µg/mL and 1.10 µM | 0.065 µg/mL and 0.137 µM | 0.102 µg/mL and 0.214 µM | – | –
8 | CN(C)C[c-]1cccc1CNc1ccnc2cc(Cl)ccc12.[Fe+2].c1cc[cH-]c1 (centres unmarked) [Ferroquine] | 830 | 520 | 0.52 ± 0.031 | > 2000 µg/mL and > 4600 µM | 320 µg/mL and 738 µM | > 2000 µg/mL and > 4600 µM | 4.9 µg/mL and 11 µM | 3.39 | –
9 | CC(C)(C)NCc1cc(C(C)(C)C)cc(-c2cnc(C(F)(F)F)c(F)c2)c1O [JPC3210] | 700 | 430 | 0.21 ± 0.012 | 213 µg/mL and 535 µM | 7.60 µg/mL and 19.1 µM | 131 µg/mL and 329 µM | 0.800 µg/mL and 2.01 µM | 5.30 | –
10 | CCCCN(CCCC)CC(O)c1cc(Cl)cc2c1-c1ccc(Cl)cc1/C2=C/c1ccc(Cl)cc1 (centres unmarked) [Lumefantrine] | – | – | – | – | – | – | – | – | IC50 (CYP2D6): 2900 nM; Ki (CYP2D6): 1800 nM; microsomal CLint at 1 µM (in vitro; [8]): < 7 µL/min/mg; solubility at 1 h [2, 6]: 12.6 µg/mL and 23.8 µM; solubility ([2]; FaSSIF-V2, 37 °C, fassif): 0.063 µg/mL and 0.119 µM; solubility ([2]; FeSSIF-V2, 37 °C, fessif): 14.4 µg/mL and 27.2 µM; solubility [2, 7]: < 0.05 µg/mL and < 0.1 µM
11 | O=C(NCCN1CCCC1)c1cc(-c2ccc(CN3CCOCC3)cc2)nc2ccc(F)cc12 [M5717] | > 20000 | – | 0.55 ± 0.041 | – | – | – | – | – | CYP2D6 % inhibition at max conc (CYP2D6; microsomes): nmi; solubility in all media tested [2]: > 2000 µg/mL
12 | COc1cc(N[C@H](C)CCCN)c2nccc(C)c2c1Oc1ccc(Cl)c(Cl)c1 [NPC1161B] | > 20000 | – | 0.035 ± 0.0020 | 1520 µg/mL and 3500 µM | 19.9 µg/mL and 45.8 µM | > 2000 µg/mL and > 4600 µM | 5.44 µg/mL and 12.5 µM | – | CYP2D6 % inhibition at max conc (CYP2D6; microsomes): 39%
13 | CC(C)(C)NCc1cc(Nc2ccnc3cc(Cl)ccc23)c2c(c1O)CCCC2 [Naphthoquine] | 1100 | 680 | 0.27 ± 0.035 | > 2000 µg/mL and > 4880 µM | 410 µg/mL and 1000 µM | 941 µg/mL and 2300 µM | 28.5 µg/mL and 69.5 µM | 4.18 | –
14 | CCc1nc(N)nc(N)c1OCCCOc1ccccc1CCC(=O)O.Cl [P218] | > 20000 | – | 0.41 ± 0.022 | > 2000 µg/mL and > 5550 µM | 408 µg/mL and 1130 µM | 525 µg/mL and 1460 µM | 1070 µg/mL and 2960 µM | 0.080 | CYP2D6 % inhibition at max conc (CYP2D6; microsomes): nmi; solubility in all media tested [2]: 400 to 500 µg/mL
15 | CS(=O)(=O)O.FC1CCN(CCOc2ccc(C3CCC4(CC3)OOC3(OO4)C4CC5CC(C4)CC3C5)cc2)CC1 (centres unmarked) [TDD-E209] | – | – | 0.0070 ± 0.0010 | 211 µg/mL and 421 µM | 87.2 µg/mL and 174 µM | > 2000 µg/mL and > 4000 µM | 0.056 µg/mL and 0.112 µM | – | –
